Test results taken from patent US20120115955A1, “Methods for tumor treatment and adipogenesis differentiation” (Centro de Investigacion Principe Felipe, priority 2010, published 2012).
“Also recorded” adds a separate entry of the source.

Columns and labels:
[1] = tested on: HUH-7 cells; format: cell-based
Procedure: (§1) Cells (10^5) were washed twice in PBS and then incubated with 25 μg/ml of Nile-Red (Invitrogen) in PBS (15 min, 4° C.). After incubation, cells were filtered through a 30 μm sieve (CellTrics, Partec). Fluorescent emission (525 nm) was registered in the FL2 channel by a Beckman Coulter Flow Cytometer (Cytomics™ FC 500). Data files were analyzed using the FlowJo flow cytometer analysis software.

[2] = tested on: MALME-3M cells; assay: Nile-Red neutral lipid / LD quantification by flow cytometry (FL2); format: cell-based, human; conditions: 12 hours, vs DMSO control; for LD accumulation (Nile-RED): 100 μg/ml each fatty acid, except 10 μg/ml docosahexaenoic and arachidonic acid; for fold induction at 100 µg/mL: Homo sapiens, 100 μg/ml, read-out: generation of LDs, fold induction (Nile-RED FL2)
Procedure: FIG. 6. […] MALME-3M cells were cultured in the presence of 10 μg/ml of docosahexaenoic acid, 100 μg/ml of nervonic acid, 100 μg/ml of erucic acid, 10 μg/ml of arachidonic acid, 100 μg/ml of linolenic acid, 100 μg/ml of linoleic acid, 100 μg/ml of oleic acid, 100 μg/ml of palmitoleic acid, 100 μg/ml of elaidic acid, or 100 μg/ml petroselinic acid for 12 hours. Fatty acids were dissolved in DMSO; therefore the cells cultured with RPMI+10% FBS and treated with DMSO only were considered negative controls. The Nile-Red analysis was performed as described in the Material and Methods section. Quantification in the FL2 parameter was assessed by the FlowJo software. Fold induction was estimated by calculating the ratio between treated conditions and the untreated condition (control). The results are representative of three independent experiments.
as §1

[3] = tested on: HCCLs (MALME-3M, MCF-7, SK-OV-3, HUH-7); assay: Flow cytometry FSC and SSC parameters of HCCLs; format: cell-based, human; conditions: mini-screen of unsaturated fatty acids associated with albumin; HUH-7, SK-OV-3, MCF-7, MALME-3M

Structure (SMILES) | LD accumulation by single fatty acid [1] | LD accumulation (Nile-RED) [2] | fold induction at 100 µg/mL [2] | modifications in the forward and side scatter parameters [3]
CCCCC/C=C\C/C=C\CCCCCCCC(=O)O [linoleic acid, cis, cis-9,12-octadecadienoic acid] | triggers LD accumulation | triggers LD accumulation; also recorded: LD accumulation was induced | ≥ 6 | remarkable modifications in the forward and side scatter parameters
CCCCCCC=CCCCCCCCC(=O)O [palmitoleic acid, hexadec-9-enoic acid] | – | LD accumulation was induced | ≥ 6 | remarkable modifications in the forward and side scatter parameters
CCCCCCCC/C=C\CCCCCCCCCCCC(=O)O [erucic acid, reference compound] | – | LD accumulation was induced | – | –
CCCCCCCC/C=C\CCCCCCCC(=O)O [oleic acid, (9Z)-Octadec-9-enoic acid] | – | LD accumulation was induced | ≥ 6 | remarkable modifications in the forward and side scatter parameters
CCCCCCCCCCC/C=C\CCCCC(=O)O [petroselinic acid, cis-6-octadecenoic] | – | LD accumulation was induced | ≥ 6 | –
CCCCCCCC/C=C/CCCCCCCC(=O)O [elaidic acid, reference compound] | – | LD accumulation was induced | – | –
